Data as given in the Kinase Knowledgebase extract (Sharma et al. 2016).

Legend:
PIK3CG (human) = PIK3CG (human) (UniProt P48736); assay: Assessment of PIK3CG Kinase Activity
PIK3CB (Human) = PIK3CB (Human) (UniProt P42338); assay: Assessment of PIK3CB Kinase Activity
PIK3CD (Human) = PIK3CD (Human) (UniProt O00329); assay: Assessment of PIK3CD Kinase Activity
PIK3CA (human) = PIK3CA (human) (UniProt P42336); assay: Assessment of PIK3CA Kinase Activity
PIK3CA (human), sequence (P42336 whole entry, looked up): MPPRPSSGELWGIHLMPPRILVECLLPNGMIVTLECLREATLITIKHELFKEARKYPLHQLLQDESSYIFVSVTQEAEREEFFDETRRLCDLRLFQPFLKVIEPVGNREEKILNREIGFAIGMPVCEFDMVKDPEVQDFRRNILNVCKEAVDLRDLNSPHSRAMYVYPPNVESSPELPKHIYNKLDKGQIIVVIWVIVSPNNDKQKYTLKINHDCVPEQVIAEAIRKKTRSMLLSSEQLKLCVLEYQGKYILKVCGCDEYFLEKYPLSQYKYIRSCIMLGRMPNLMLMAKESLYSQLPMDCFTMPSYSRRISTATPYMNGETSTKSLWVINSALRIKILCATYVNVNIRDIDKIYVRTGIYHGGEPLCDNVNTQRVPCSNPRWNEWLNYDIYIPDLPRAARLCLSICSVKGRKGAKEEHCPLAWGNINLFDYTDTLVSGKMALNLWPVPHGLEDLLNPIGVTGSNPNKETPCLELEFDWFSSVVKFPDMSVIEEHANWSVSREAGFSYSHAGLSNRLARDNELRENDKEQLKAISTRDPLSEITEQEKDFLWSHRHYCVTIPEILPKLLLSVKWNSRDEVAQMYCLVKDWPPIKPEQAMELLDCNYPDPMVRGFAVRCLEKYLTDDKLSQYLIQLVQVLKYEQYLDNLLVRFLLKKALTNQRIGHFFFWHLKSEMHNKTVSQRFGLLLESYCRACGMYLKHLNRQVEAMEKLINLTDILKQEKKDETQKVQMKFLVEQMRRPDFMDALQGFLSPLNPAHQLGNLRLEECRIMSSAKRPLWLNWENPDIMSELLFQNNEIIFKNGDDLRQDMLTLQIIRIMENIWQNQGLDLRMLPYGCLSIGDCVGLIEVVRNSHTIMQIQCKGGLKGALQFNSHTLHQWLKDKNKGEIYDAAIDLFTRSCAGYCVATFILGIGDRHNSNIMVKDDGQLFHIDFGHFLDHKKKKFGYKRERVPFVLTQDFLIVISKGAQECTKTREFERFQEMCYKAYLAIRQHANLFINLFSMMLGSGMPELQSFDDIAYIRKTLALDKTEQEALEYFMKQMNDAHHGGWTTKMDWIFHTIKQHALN

PIK3CB (Human), sequence (P42338 whole entry, looked up): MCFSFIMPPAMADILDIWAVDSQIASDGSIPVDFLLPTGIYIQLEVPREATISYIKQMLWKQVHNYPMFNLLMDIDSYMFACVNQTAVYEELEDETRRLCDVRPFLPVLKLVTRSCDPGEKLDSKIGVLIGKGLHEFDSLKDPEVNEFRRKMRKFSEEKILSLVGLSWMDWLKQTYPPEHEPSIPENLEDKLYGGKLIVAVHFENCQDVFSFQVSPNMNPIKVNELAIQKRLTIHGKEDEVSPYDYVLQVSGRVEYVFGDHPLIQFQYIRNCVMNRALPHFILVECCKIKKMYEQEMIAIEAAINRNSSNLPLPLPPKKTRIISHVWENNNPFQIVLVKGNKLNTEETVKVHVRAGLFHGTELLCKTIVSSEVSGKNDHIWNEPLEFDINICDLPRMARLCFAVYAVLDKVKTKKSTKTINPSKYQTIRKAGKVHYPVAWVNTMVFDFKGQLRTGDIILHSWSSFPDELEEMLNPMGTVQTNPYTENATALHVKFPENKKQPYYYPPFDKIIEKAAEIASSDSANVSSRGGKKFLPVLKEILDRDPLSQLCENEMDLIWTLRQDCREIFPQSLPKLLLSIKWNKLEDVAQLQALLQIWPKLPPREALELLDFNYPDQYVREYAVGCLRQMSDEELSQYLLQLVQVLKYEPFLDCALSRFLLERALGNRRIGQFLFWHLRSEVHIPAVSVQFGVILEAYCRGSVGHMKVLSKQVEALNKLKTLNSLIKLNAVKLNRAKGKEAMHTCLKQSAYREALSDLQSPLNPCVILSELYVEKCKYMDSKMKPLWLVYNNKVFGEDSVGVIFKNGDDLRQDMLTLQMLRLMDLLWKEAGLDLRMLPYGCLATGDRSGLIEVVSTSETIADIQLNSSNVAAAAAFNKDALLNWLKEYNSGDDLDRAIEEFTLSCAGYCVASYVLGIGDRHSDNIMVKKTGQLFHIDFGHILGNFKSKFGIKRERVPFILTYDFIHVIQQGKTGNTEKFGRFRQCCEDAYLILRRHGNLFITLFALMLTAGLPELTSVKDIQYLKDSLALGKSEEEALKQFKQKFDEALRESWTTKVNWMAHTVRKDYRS
PIK3CD (Human), sequence (O00329 whole entry, looked up): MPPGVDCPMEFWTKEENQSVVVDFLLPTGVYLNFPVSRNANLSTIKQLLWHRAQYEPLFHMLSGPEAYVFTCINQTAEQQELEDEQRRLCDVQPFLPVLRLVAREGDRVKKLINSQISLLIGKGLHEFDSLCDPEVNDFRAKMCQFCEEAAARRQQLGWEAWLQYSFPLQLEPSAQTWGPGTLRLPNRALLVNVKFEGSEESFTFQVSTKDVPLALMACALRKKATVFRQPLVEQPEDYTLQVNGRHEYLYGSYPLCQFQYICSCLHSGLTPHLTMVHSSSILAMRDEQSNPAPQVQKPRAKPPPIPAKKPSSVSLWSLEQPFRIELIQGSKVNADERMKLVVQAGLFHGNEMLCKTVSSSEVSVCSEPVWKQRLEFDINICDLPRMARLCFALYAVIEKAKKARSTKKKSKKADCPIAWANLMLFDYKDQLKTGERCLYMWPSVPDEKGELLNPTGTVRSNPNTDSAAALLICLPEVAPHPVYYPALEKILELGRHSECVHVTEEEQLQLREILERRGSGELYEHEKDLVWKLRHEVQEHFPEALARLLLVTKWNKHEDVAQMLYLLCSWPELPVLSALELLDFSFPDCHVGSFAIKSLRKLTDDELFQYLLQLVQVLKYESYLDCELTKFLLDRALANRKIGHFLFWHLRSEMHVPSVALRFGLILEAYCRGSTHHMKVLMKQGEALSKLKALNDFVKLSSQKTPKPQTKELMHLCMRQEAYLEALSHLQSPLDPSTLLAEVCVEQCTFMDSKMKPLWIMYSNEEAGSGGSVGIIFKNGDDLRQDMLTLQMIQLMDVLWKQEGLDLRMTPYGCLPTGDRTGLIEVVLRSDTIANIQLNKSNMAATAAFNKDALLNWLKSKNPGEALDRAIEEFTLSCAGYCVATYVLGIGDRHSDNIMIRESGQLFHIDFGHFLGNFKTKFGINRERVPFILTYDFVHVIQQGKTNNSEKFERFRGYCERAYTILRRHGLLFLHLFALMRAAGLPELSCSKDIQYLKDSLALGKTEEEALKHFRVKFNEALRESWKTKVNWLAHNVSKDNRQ
PIK3CG (human), sequence (P48736 whole entry, looked up): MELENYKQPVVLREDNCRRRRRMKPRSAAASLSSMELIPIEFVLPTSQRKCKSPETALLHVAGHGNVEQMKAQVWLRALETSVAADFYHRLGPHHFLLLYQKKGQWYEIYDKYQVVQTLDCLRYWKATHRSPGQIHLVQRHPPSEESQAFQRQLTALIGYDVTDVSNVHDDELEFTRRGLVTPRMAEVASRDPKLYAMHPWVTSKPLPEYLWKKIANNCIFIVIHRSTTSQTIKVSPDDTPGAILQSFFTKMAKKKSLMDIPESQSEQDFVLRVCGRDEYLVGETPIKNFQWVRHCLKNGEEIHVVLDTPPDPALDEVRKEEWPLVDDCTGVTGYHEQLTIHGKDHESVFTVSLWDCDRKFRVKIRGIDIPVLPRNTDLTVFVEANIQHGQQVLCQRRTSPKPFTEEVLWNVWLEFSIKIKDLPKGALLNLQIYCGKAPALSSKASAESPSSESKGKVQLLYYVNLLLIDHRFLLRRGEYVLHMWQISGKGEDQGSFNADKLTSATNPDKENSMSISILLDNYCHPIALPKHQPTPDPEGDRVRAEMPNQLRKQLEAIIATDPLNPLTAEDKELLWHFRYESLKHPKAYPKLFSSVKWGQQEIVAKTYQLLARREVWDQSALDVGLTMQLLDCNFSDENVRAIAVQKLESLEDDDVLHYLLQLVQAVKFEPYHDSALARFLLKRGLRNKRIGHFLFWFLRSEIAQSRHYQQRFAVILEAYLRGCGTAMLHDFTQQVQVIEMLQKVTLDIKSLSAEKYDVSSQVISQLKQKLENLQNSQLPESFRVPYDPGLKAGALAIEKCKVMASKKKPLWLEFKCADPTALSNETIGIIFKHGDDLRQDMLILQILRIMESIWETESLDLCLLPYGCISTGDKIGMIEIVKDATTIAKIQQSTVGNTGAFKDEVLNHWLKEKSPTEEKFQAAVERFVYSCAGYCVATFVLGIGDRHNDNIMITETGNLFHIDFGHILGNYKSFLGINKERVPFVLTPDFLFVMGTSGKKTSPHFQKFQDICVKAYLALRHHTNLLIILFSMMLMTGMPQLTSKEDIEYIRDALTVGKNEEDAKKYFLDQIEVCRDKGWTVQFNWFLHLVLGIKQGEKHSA

IC50 (PIK3CG (human)) | IC50 (PIK3CB (Human)) | IC50 (PIK3CD (Human)) | IC50 (PIK3CA (human)) | Compound
< 100 nM | > 10000 nM | < 100 nM | – | Cc1ccc(-c2cccc3cc([C@H](C)Nc4nc(N)ncc4C#N)n(-c4ccccc4)c(=O)c23)cn1
< 100 nM | > 10000 nM | < 100 nM | – | CNc1cc(-c2cccc3cc([C@H](C)Nc4nc(N)ncc4C#N)n(-c4ccccc4)c(=O)c23)ccn1
< 100 nM | 100 to 1000 nM | < 100 nM | – | C[C@H](Nc1nc(N)ncc1C#N)c1cc2cccc(Cl)c2c(=O)n1-c1ccc(F)cc1F
< 100 nM | 100 to 1000 nM | < 100 nM | – | CCOc1ncc(-c2cnc(N)nc2N[C@@H](C)c2cc3cccc(Cl)c3c(=O)n2-c2ccccc2)s1
< 100 nM | 100 to 1000 nM | < 100 nM | – | Cc1csc(-c2cnc(N)nc2N[C@@H](C)c2cc3cccc(Cl)c3c(=O)n2-c2ccccc2)n1
< 100 nM | 100 to 1000 nM | < 100 nM | – | C[C@H](Nc1nc(N)ncc1-c1cscn1)c1cc2cccc(Cl)c2c(=O)n1-c1ccccc1
< 100 nM | 100 to 1000 nM | < 100 nM | – | Cc1cccc2cc([C@H](C)Nc3nc(N)ncc3C#N)n(-c3cccc(F)c3)c(=O)c12
< 100 nM | 100 to 1000 nM | < 100 nM | – | C[C@H](Nc1nc(N)ncc1C(=O)N(C)C)c1cc2cccc(Cl)c2c(=O)n1-c1ccccc1
– | > 10000 nM | – | > 10000 nM | COc1cc(N[C@@H](C)c2cc3cccc(Cl)c3c(=O)n2-c2ccccc2)nc(N)n1
< 100 nM | > 10000 nM | < 100 nM | – | Cc1ncc(-c2cccc3cc([C@H](C)Nc4nc(N)ncc4C#N)n(-c4cccc(F)c4)c(=O)c23)cn1
< 100 nM | 100 to 1000 nM | < 100 nM | – | C[C@H](Nc1nc(N)ncc1C#N)c1cc2cccc(-c3cccc(F)c3)c2c(=O)n1-c1ccccc1
– | > 10000 nM | – | > 10000 nM | COc1cc(-c2cccc3cc([C@H](C)Nc4nc(N)ncc4C(=O)N(C)CCO)n(-c4ccccc4)c(=O)c23)ccn1
< 100 nM | > 10000 nM | < 100 nM | – | COc1ccc(-c2cccc3cc([C@H](C)Nc4nc(N)ncc4C#N)n(-c4ccccc4)c(=O)c23)nc1
< 100 nM | 100 to 1000 nM | < 100 nM | – | C[C@H](Nc1nc(N)ncc1-c1cncs1)c1cc2cccc(Cl)c2c(=O)n1-c1ccccc1
< 100 nM | < 100 nM | < 100 nM | – | C[C@H](Nc1nc(N)ncc1C#N)c1cc2cccc(Cl)c2c(=O)n1-c1cscn1
< 100 nM | < 100 nM | < 100 nM | – | C[C@H](Nc1nc(N)ncc1C#N)c1cc2cccc(Cl)c2c(=O)n1-c1ccccc1
< 100 nM | 100 to 1000 nM | < 100 nM | – | C[C@H](Nc1nc(N)ncc1C#N)c1cc2cccc(Cl)c2c(=O)n1-c1cc(F)ccc1F
< 100 nM | > 10000 nM | < 100 nM | – | COc1cc(-c2cccc3cc([C@H](C)Nc4nc(N)ncc4-c4ccncc4)n(-c4ccccc4)c(=O)c23)ccn1
< 100 nM | 100 to 1000 nM | < 100 nM | – | C[C@H](Nc1nc(N)ncc1C#N)c1cc2cccc(Cl)c2c(=O)n1-c1ccccc1F
< 100 nM | 100 to 1000 nM | < 100 nM | – | C#Cc1cccc2cc([C@H](C)Nc3nc(N)ncc3C#N)n(-c3ccccc3)c(=O)c12

IC50 (PIK3CG (human)) | IC50 (PIK3CB (Human)) | IC50 (PIK3CD (Human)) | IC50 (PIK3CA (human)) | Compound
< 100 nM | < 100 nM | < 100 nM | – | CCn1c([C@H](C)Nc2nc(N)ncc2C#N)cc2cccc(Cl)c2c1=O
– | > 10000 nM | – | > 10000 nM | C[C@H](Nc1nc(N)ncc1C#N)c1cc2cccc(-c3ccn(C)c(=O)c3)c2c(=O)n1-c1ccccc1
< 100 nM | 100 to 1000 nM | < 100 nM | – | C[C@H](Nc1nc(N)ncc1C#N)c1cc2cccc(Cl)c2c(=O)n1-c1ccon1
< 100 nM | > 10000 nM | < 100 nM | – | C[C@H](Nc1nc(N)ncc1C#N)c1cc2cccc(-c3ccc(S(C)(=O)=O)cc3)c2c(=O)n1-c1ccccc1
100 to 1000 nM | > 10000 nM | < 100 nM | – | C[C@H](Nc1nc(N)ncc1C#N)c1cc2cccc(-c3ccnnc3)c2c(=O)n1-c1ccccc1
< 100 nM | > 10000 nM | < 100 nM | – | C[C@H](Nc1nc(N)ncc1C#N)c1cc2cccc(-c3cncc(OC(F)F)c3)c2c(=O)n1-c1ccccc1
< 100 nM | > 10000 nM | < 100 nM | – | Cc1cc(-c2cccc3cc([C@H](C)Nc4nc(N)ncc4C#N)n(-c4ccccc4)c(=O)c23)cn(C)c1=O
< 100 nM | 100 to 1000 nM | < 100 nM | – | C#Cc1cnc(N)nc1N[C@@H](C)c1cc2cccc(Cl)c2c(=O)n1-c1ccccc1
< 100 nM | > 10000 nM | < 100 nM | – | COc1cc(-c2cccc3cc([C@H](C)Nc4nc(N)ncc4[N+](=O)[O-])n(-c4ccccc4)c(=O)c23)ccn1
< 100 nM | > 10000 nM | < 100 nM | – | C[C@H](Nc1nc(N)ncc1C#N)c1cc2cccc(-c3cccc(S(C)(=O)=O)c3)c2c(=O)n1-c1ccccc1
– | > 10000 nM | – | > 10000 nM | C[C@H](Nc1nc(N)ncc1NC(=O)c1ccccc1)c1cc2cccc(Cl)c2c(=O)n1-c1ccccc1
< 100 nM | 100 to 1000 nM | < 100 nM | – | C[C@H](Nc1nc(N)ncc1C#N)c1cc2cccc(Cl)c2c(=O)n1-c1ccc(Cl)cc1
< 100 nM | < 100 nM | < 100 nM | – | CC(C)n1c([C@H](C)Nc2nc(N)ncc2C#N)cc2cccc(Cl)c2c1=O
< 100 nM | < 100 nM | < 100 nM | – | CCOc1nc(-c2cnc(N)nc2N[C@@H](C)c2cc3cccc(Cl)c3c(=O)n2-c2ccccc2)cs1
100 to 1000 nM | > 10000 nM | < 100 nM | – | C[C@H](Nc1nc(N)ncc1C#N)c1cc2cccc(-c3cccc(NS(=O)(=O)N(C)C)c3)c2c(=O)n1-c1ccccc1
< 100 nM | > 10000 nM | < 100 nM | – | C[C@H](Nc1nc(N)ncc1C(=O)N(C)C)c1cc2cccc(-c3cnn(C)c3)c2c(=O)n1-c1ccccc1
< 100 nM | – | 100 to 1000 nM | > 10000 nM | COc1ccc(-n2c([C@H](C)Nc3nc(N)ncc3C#N)cc3cccc(Cl)c3c2=O)cc1
– | 100 to 1000 nM | – | – | COc1cc(-c2cccc3cc([C@H](C)N)n(-c4ccccc4)c(=O)c23)cnc1C
< 100 nM | – | < 100 nM | 100 to 1000 nM | COc1cncc(-c2cccc3nc([C@H](C)Nc4nc(N)ncc4C#N)n(-c4ccccc4)c(=O)c23)c1
< 100 nM | – | < 100 nM | 100 to 1000 nM | COc1cc(-c2cccc3cc([C@H](C)Nc4nc(N)ncc4C#N)n(-c4ccccc4)c(=O)c23)cnc1C

IC50 (PIK3CG (human)) | IC50 (PIK3CB (Human)) | IC50 (PIK3CD (Human)) | IC50 (PIK3CA (human)) | Compound
< 100 nM | > 10000 nM | < 100 nM | – | C[C@H](Nc1nc(N)ncc1C#N)c1cc2cccc(-c3ccc(O)nc3)c2c(=O)n1-c1ccccc1
< 100 nM | – | < 100 nM | < 100 nM | COc1cccc(-c2cccc3cc([C@H](C)Nc4nc(N)ncc4C#N)n(-c4ccccc4)c(=O)c23)c1
< 100 nM | 100 to 1000 nM | < 100 nM | – | CC#Cc1cccc2cc([C@H](C)Nc3nc(N)ncc3C#N)n(-c3ccccc3)c(=O)c12
< 100 nM | 100 to 1000 nM | < 100 nM | – | C[C@H](Nc1nc(N)ncc1C#N)c1cc2cccc(Cl)c2c(=O)n1-c1cccc(F)c1
< 100 nM | – | 100 to 1000 nM | > 10000 nM | C[C@H](Nc1nc(N)ncc1C#N)c1cc2cccc(Cl)c2c(=O)n1-c1ccc2c(c1)OCO2
< 100 nM | 100 to 1000 nM | < 100 nM | – | C[C@H](Nc1nc(N)ncc1-c1ncco1)c1cc2cccc(Cl)c2c(=O)n1-c1ccccc1
< 100 nM | – | < 100 nM | > 10000 nM | C[C@H](Nc1nc(N)ncc1-c1cccs1)c1cc2cccc(Cl)c2c(=O)n1-c1ccccc1
< 100 nM | – | < 100 nM | 100 to 1000 nM | COc1cc(-c2cccc3cc([C@H](C)Nc4nc(N)ncc4-c4cnc(C)s4)n(-c4ccccc4)c(=O)c23)ccn1
< 100 nM | – | < 100 nM | 100 to 1000 nM | CCOc1cc(-c2cccc3cc([C@H](C)Nc4nc(N)ncc4C#N)n(-c4ccccc4)c(=O)c23)ccn1
100 to 1000 nM | – | 100 to 1000 nM | > 10000 nM | C[C@H](Nc1nc(N)ncc1C#N)c1cc2cccc(Cl)c2c(=O)n1CC(C)(C)C
100 to 1000 nM | > 10000 nM | 100 to 1000 nM | – | COc1cc(-c2cccc3cc([C@H](C)Nc4nc(N)ncc4-c4cccnc4)n(-c4ccccc4)c(=O)c23)ccn1
< 100 nM | > 10000 nM | < 100 nM | – | Cc1ncc(-c2cccc3cc([C@H](C)Nc4nc(N)ncc4C#N)n(-c4ccccc4)c(=O)c23)cn1
< 100 nM | – | < 100 nM | > 10000 nM | Cc1ccc(-n2c([C@H](C)Nc3nc(N)ncc3C#N)cc3cccc(Cl)c3c2=O)cc1
< 100 nM | – | < 100 nM | 100 to 1000 nM | COc1cc(-c2cccc3cc([C@H](C)Nc4nc(N)ncc4C#N)n(-c4cccc(F)c4)c(=O)c23)ccn1
< 100 nM | 100 to 1000 nM | < 100 nM | – | COc1ccc(-c2cccc3cc([C@H](C)Nc4nc(N)ncc4C#N)n(C4CC4)c(=O)c23)cn1
< 100 nM | – | < 100 nM | 100 to 1000 nM | C[C@H](Nc1nc(N)ncc1C#N)c1cc2cccc(-c3cccc(Cl)c3)c2c(=O)n1-c1ccccc1
< 100 nM | – | 100 to 1000 nM | > 10000 nM | C[C@H](Nc1nc(N)ncc1-c1ccc(O)cc1)c1cc2cccc(Cl)c2c(=O)n1-c1ccccc1
< 100 nM | – | < 100 nM | 100 to 1000 nM | COc1cncc(-c2cccc3cc([C@H](C)Nc4nc(N)ncc4C#N)n(-c4cccc(F)c4)c(=O)c23)c1
< 100 nM | – | < 100 nM | 100 to 1000 nM | COc1cncc(-c2cccc3cc([C@H](C)Nc4nc(N)ncc4C(N)=O)n(-c4ccccc4)c(=O)c23)c1

Compound | IC50 (PIK3CG (human)) | IC50 (PIK3CB (Human)) | IC50 (PIK3CD (Human)) | IC50 (PIK3CA (human))
C[C@H](Nc1nc(N)ncc1C#N)c1nc2cccc(Cl)c2c(=O)n1-c1ccccc1 | < 100 nM | 100 to 1000 nM | < 100 nM | –
